Results on six compounds are retold here after patent publication US9062124B2, “GIP-based mixed agonists for treatment of metabolic disorders and obesity” (priority 2008, dated 2015).

Format in all cases: cell-based
One experiment concerns the target T1, glucagon receptor (Homo sapiens, UniProt P47871).
T1 construct: expressed in transfected cells; host or cells: HEK293
The experiment is described as follows: cAMP synthesis functional assay (firefly luciferase reporter in HEK293 cells), glucagon receptor.

The target of a further experiment is T2, GLP-1 receptor (Homo sapiens, UniProt P43220).
T2 construct: expressed in transfected cells; host or cells: HEK293
T2 sequence (P43220 24-463, species assumed): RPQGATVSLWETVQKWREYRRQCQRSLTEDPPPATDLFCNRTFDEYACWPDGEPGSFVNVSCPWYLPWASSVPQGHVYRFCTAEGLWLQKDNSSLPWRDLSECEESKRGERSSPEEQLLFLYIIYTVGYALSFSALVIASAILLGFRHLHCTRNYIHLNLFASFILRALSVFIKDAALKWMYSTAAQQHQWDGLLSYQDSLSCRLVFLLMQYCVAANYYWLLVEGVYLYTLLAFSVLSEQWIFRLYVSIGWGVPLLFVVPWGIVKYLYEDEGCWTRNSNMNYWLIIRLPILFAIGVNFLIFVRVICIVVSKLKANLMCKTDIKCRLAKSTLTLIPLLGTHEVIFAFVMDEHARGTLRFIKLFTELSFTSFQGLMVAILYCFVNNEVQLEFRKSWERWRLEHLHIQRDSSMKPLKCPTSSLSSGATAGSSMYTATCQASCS
Briefly: cAMP synthesis functional assay (firefly luciferase reporter in HEK293 cells), GLP-1 receptor.

The target of another experiment is T3, GIP receptor (Homo sapiens, UniProt P48546).
T3 construct: expressed in transfected cells; host or cells: HEK293
T3 sequence (P48546 22-466): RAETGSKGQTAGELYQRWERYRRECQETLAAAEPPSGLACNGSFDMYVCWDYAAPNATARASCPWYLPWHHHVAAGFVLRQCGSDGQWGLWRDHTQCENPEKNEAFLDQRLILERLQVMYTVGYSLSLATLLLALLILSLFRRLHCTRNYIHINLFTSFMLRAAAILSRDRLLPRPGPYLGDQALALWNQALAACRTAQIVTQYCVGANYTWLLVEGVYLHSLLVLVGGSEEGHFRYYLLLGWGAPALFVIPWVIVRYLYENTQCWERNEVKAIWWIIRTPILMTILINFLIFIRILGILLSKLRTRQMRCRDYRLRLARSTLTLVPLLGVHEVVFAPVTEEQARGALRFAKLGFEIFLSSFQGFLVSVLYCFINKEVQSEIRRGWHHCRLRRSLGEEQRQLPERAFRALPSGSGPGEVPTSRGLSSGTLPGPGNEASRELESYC
The experiment is described as follows: cAMP synthesis functional assay (firefly luciferase reporter in HEK293 cells), GIP receptor.

Where [1] appears, read: relative to the standard (Std.) EC50 of the same run.
Setting [2] is: GLP-1 Receptor EC50, cAMP luciferase reporter assay as in Example 16.
Setting [3] is: GIP Receptor EC50, cAMP luciferase reporter assay as in Example 16.
Where [4] appears, read: Table 1, relative to the native hormone of the indicated receptor.

Where a SMILES comes first, the peptide text is derived from it. Bridges are numbered along the chain shown (N, C = ends). Where no end group is shown, it is not given here. [ ]: non-standard residue; d: D form. The star is where a group is joined. Myristoyl = CCCCCCCCCCCCCC(=O)*; Aib = CC(C)(N)C(=O)O

T1 sequence (P47871 26-477): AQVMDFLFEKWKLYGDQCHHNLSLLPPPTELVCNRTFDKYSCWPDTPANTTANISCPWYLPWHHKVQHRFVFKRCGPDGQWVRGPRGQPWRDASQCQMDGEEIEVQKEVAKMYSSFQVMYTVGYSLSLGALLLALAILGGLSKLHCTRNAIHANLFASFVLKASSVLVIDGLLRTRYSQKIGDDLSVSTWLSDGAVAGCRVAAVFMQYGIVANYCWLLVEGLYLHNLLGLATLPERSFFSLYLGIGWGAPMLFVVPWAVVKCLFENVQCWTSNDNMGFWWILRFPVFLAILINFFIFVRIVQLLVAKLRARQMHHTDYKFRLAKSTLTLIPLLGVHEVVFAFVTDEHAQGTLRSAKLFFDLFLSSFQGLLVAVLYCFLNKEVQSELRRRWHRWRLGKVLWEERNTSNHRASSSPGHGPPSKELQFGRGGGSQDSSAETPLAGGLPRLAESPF

In the case of `CCCCCCCCCCCCCC(=O)NCCCC[C@H](NC(=O)[C@H](CC(=O)O)NC(=O)[C@H](CO)NC(=O)[C@@H](NC(=O)[C@H](Cc1ccccc1)NC(=O)[C@@H](NC(=O)CNC(=O)[C@H](CCC(=O)O)NC(=O)C(C)(C)NC(=O)[C@@H](N)Cc1ccc(O)cc1)[C@@H](C)O)[C@@H](C)O)C(=O)N[C@@H](CO)C(=O)N[C@H](C(=O)N[C@@H](Cc1ccc(O)cc1)C(=O)N[C@@H](CC(C)C)C(=O)N[C@@H](CC(=O)O)C(=O)N[C@@H](CCCCN)C(=O)N[C@@H](CCC(N)=O)C(=O)N[C@@H](C)C(=O)N[C@@H](C)C(=O)NC(C)(C)C(=O)N[C@@H](CCC(=O)O)C(=O)N[C@@H](Cc1ccccc1)C(=O)N[C@H](C(=O)N[C@@H](CS)C(=O)N[C@@H](Cc1c[nH]c2ccccc12)C(=O)N[C@@H](CC(C)C)C(=O)N[C@@H](CC(C)C)C(=O)N[C@@H](C)C(=O)NCC(=O)NCC(=O)N1CCC[C@H]1C(=O)N[C@@H](CO)C(=O)N[C@@H](CO)C(=O)NCC(=O)N[C@@H](C)C(=O)N1CCC[C@H]1C(=O)N1CCC[C@H]1C(=O)N1CCC[C@H]1C(=O)N[C@@H](CO)C(N)=O)C(C)C)[C@@H](C)CC` [mt-337] (H-Y[Aib]EGTFTSDK(Myristoyl)SIYLDKQAA[Aib]EFVCWLLAGGPSSGAPPPS-NH2; N-terminus assumed), on glucagon receptor (setting [1]), the “Glucagon Receptor relative activity” value was 0.02%. The EC50 on GLP-1 receptor (setting [2]) turned out to be 0.0082 nM; on GIP receptor (setting [3]), 0.008 nM. In addition, at GLP-1 receptor (setting [1]), the “GLP-1 Receptor relative activity” value was found to be 74.39%. For the same compound, the “GIP Receptor relative activity” value at GIP receptor (setting [1]) turned out to be 115.00%.
On to “Y[Aib]EGTFTSDYSIYLDEQAAKEFVNWLLAGKGKKNWLKHNITQC-NH2 (lactam 16-20) [mt-206]”, for which the “Glucagon Receptor relative activity” value on glucagon receptor (setting [4]) worked out at 0.01%. Also, the “GLP-1 Receptor relative activity” value on GLP-1 receptor (setting [4]) came to 32.63%. The “GIP Receptor relative activity” value at GIP receptor (setting [4]) turned out to be 13.04%.
On the same counts, the results for `CC[C@H](C)[C@H](NC(=O)[C@H](Cc1ccccc1)NC(=O)[C@@H](NC(=O)CNC(=O)[C@H](CCC(N)=O)NC(=O)[C@H](C)NC(=O)[C@@H](N)Cc1ccc(O)cc1)[C@@H](C)O)C(=O)N[C@@H](CO)C(=O)N[C@@H](CC(=O)O)C(=O)N[C@@H](Cc1ccc(O)cc1)C(=O)N[C@@H](CO)C(=O)N[C@@H](CCCCN)C(=O)N[C@@H](Cc1ccc(O)cc1)C(=O)N[C@@H](CC(C)C)C(=O)N[C@@H](CC(=O)O)C(=O)N[C@H]1CCC(=O)NCCCC[C@@H](C(=O)N[C@@H](CCC(=O)O)C(=O)N[C@@H](Cc2ccccc2)C(=O)N[C@H](C(=O)N[C@@H](CC(N)=O)C(=O)N[C@@H](Cc2c[nH]c3ccccc23)C(=O)N[C@@H](CC(C)C)C(=O)N[C@@H](CC(C)C)C(=O)N[C@@H](C)C(=O)NCC(=O)NCC(=O)N2CCC[C@H]2C(=O)N[C@@H](CO)C(=O)N[C@@H](CO)C(=O)NCC(=O)N[C@@H](C)C(=O)N2CCC[C@H]2C(=O)N2CCC[C@H]2C(=O)N2CCC[C@H]2C(=O)N[C@@H](CO)C(N)=O)C(C)C)NC(=O)[C@H](C)NC(=O)[C@H](C)NC(=O)[C@H](CCC(N)=O)NC1=O` [mt-146] (H-YAQGTFISDYSKYLDEQAAKEFVNWLLAGGPSSGAPPPS-NH2; lactam 16-20; N-terminus assumed) are 480.00%, 0.25% and 13.30%.
As to `CC[C@H](C)[C@H](NC(=O)[C@H](CO)NC(=O)[C@H](Cc1ccc(O)cc1)NC(=O)[C@H](CC(=O)O)NC(=O)[C@H](CO)NC(=O)[C@@H](NC(=O)[C@H](Cc1ccccc1)NC(=O)[C@@H](NC(=O)CNC(=O)[C@H](CCC(N)=O)NC(=O)[C@H](CO)NC(=O)[C@@H](N)Cc1ccc(O)cc1)[C@@H](C)O)[C@@H](C)O)C(=O)N[C@@H](Cc1ccc(O)cc1)C(=O)N[C@@H](CC(C)C)C(=O)N[C@@H](CC(=O)O)C(=O)N[C@@H](CCC(=O)O)C(=O)N[C@@H](CCC(N)=O)C(=O)N[C@@H](C)C(=O)N[C@@H](C)C(=O)N[C@@H](CCCCN)C(=O)N[C@@H](CCC(=O)O)C(=O)N[C@@H](Cc1ccccc1)C(=O)N[C@H](C(=O)N[C@H]1CCC(=O)NCCCC[C@@H](C(=O)NCC(=O)NCC(=O)N2CCC[C@H]2C(=O)N[C@@H](CO)C(=O)N[C@@H](CO)C(=O)NCC(=O)N[C@@H](C)C(=O)N2CCC[C@H]2C(=O)N2CCC[C@H]2C(=O)N2CCC[C@H]2C(=O)N[C@@H](CO)C(N)=O)NC(=O)[C@H](CC(C)C)NC(=O)[C@H](CC(C)C)NC(=O)[C@H](Cc2c[nH]c3ccccc23)NC1=O)C(C)C` [mt-157] (H-YSQGTFTSDYSIYLDEQAAKEFVEWLLKGGPSSGAPPPS-NH2; lactam 24-28; N-terminus assumed), the “Glucagon Receptor relative activity” value on glucagon receptor (setting [4]) is on record as 6.92%. Moreover, at GLP-1 receptor (setting [4]), the “GLP-1 Receptor relative activity” value is on record as 37.04%. Moreover, the “GIP Receptor relative activity” value on GIP receptor (setting [4]) turned out to be 4.00%.
For the compound `CC[C@H](C)[C@H](NC(=O)[C@H](CO)NC(=O)[C@H](Cc1ccc(O)cc1)NC(=O)[C@H](CC(=O)O)NC(=O)[C@H](CO)NC(=O)[C@@H](NC(=O)[C@H](Cc1ccccc1)NC(=O)[C@@H](NC(=O)CNC(=O)[C@H](CCC(=O)O)NC(=O)C(C)(C)NC(=O)[C@@H](N)Cc1ccc(O)cc1)[C@@H](C)O)[C@@H](C)O)C(=O)N[C@@H](Cc1ccc(O)cc1)C(=O)N[C@@H](CC(C)C)C(=O)N[C@@H](CC(=O)O)C(=O)N[C@@H](CCCCN)C(=O)N[C@@H](CCC(N)=O)C(=O)N[C@@H](C)C(=O)N[C@@H](C)C(=O)NC(C)(C)C(=O)N[C@@H](CCC(=O)O)C(=O)N[C@@H](Cc1ccccc1)C(=O)N[C@H](C(=O)N[C@@H](CS)C(=O)N[C@@H](Cc1c[nH]c2ccccc12)C(=O)N[C@@H](CC(C)C)C(=O)N[C@@H](CC(C)C)C(=O)N[C@@H](C)C(=O)NCC(=O)NCC(=O)N1CCC[C@H]1C(=O)N[C@@H](CO)C(=O)N[C@@H](CO)C(=O)NCC(=O)N[C@@H](C)C(=O)N1CCC[C@H]1C(=O)N1CCC[C@H]1C(=O)N1CCC[C@H]1C(=O)N[C@@H](CO)C(=O)N[C@H](CCCCN)C(N)=O)C(C)C` [mt-334], the 50% effective concentration (EC50) amounted to 7.07 nM at glucagon receptor (Glucagon Receptor EC50, cAMP luciferase reporter assay as in Example 16); 0.0034 nM at GLP-1 receptor (setting [2]); 0.0041 nM at GIP receptor (setting [3]). The “Glucagon Receptor relative activity” value on glucagon receptor (setting [1]) was 0.27%. Also, the “GLP-1 Receptor relative activity” value at GLP-1 receptor (setting [1]) was determined as 70.59%. For the same compound, on GIP receptor (setting [1]), the “GIP Receptor relative activity” value amounted to 187.80%.
Regarding `CC[C@H](C)[C@H](NC(=O)[C@H](CO)NC(=O)[C@H](Cc1ccc(O)cc1)NC(=O)[C@H](CC(=O)O)NC(=O)[C@H](CO)NC(=O)[C@@H](NC(=O)[C@H](Cc1ccccc1)NC(=O)[C@@H](NC(=O)CNC(=O)[C@H](CCC(N)=O)NC(=O)C(C)(C)NC(=O)[C@@H](N)Cc1ccc(O)cc1)[C@@H](C)O)C(C)C)C(=O)N[C@@H](Cc1ccc(O)cc1)C(=O)N[C@@H](CC(C)C)C(=O)N[C@@H](CC(=O)O)C(=O)N[C@H]1CCC(=O)NCCCC[C@@H](C(=O)N[C@@H](CCC(=O)O)C(=O)N[C@@H](Cc2ccccc2)C(=O)N[C@H](C(=O)N[C@@H](CC(N)=O)C(=O)N[C@@H](Cc2c[nH]c3ccccc23)C(=O)N[C@@H](CC(C)C)C(=O)N[C@@H](CC(C)C)C(=O)N[C@@H](C)C(=O)NCC(=O)NCC(=O)N2CCC[C@H]2C(=O)N[C@@H](CO)C(=O)N[C@@H](CO)C(=O)NCC(=O)N[C@@H](C)C(=O)N2CCC[C@H]2C(=O)N2CCC[C@H]2C(=O)N2CCC[C@H]2C(=O)N[C@@H](CO)C(=O)N[C@@H](CS)C(N)=O)C(C)C)NC(=O)[C@H](C)NC(=O)[C@H](C)NC(=O)[C@H](CCC(N)=O)NC1=O` [mt-199] (H-Y[Aib]QGTFVSDYSIYLDEQAAKEFVNWLLAGGPSSGAPPPSC-NH2; lactam 16-20; N-terminus assumed), the EC50 on glucagon receptor (Glucagon Receptor EC50, nM, Table 1) was determined as 0.214 nM; on GLP-1 receptor (GLP-1 Receptor EC50, nM, Table 1), 2.8 nM; on GIP receptor (GIP Receptor EC50, nM, Table 1), 0.526 nM. For the same compound, on glucagon receptor (setting [4]), the “Glucagon Receptor relative activity” value came to 31.31%. In addition, at GLP-1 receptor (setting [4]), the “GLP-1 Receptor relative activity” value is listed as 1.04%. Further, the “GIP Receptor relative activity” value at GIP receptor (setting [4]) stood at 5.51%.
